From patent US6001880A, “Alkylenediamine derivative, anti-ulcer drug, and antibacterial drug” (Shiseido Co., Ltd., priority 1997, dated 1999)

System: isolated gastric fundic gland
Test: CAP: Acid Secretion Inhibition Test In Vitro ([14C]-aminopyrine uptake)
Assay type: cell-based, rabbit (male Japanese White)
Conditions: Oryctolagus cuniculus; final concentration 10^-5 M; histamine 10^-5 M stimulation; read-out: CAP: acid secretion inhibitory rate
Experimental: CAP: Acid Secretion Inhibition Test In Vitro
The acid secretion inhibitory activity in a cell level is studied. It can also be used for studying the mechanism of the effect.
First, an isolated gastric fundic gland sample was prepared. Namely, a male Japanese White rabbit (2.5 to 3 kg) was anesthetized to death with Nembutal™ and then the abdomen was incised. Immediately thereafter, the stomach was removed and, after its pyloric and cardiac antrum were severed, incised along its greater curvature into two sheets. The gastric contents adhering to the mucosal surface was washed out with ice-cooled PBS (-) and then carefully washed therein. The gastric wall was spread on a cork board with its mucosal surface facing up and the feed and mucus thereon were completely removed with sterile gauze. The mucosa was separated therefrom by a spatula and then collected in ice-cooled PBS (-). After being washed twice with PBS (-), the mucosa was minced into 2-3 mm^3 pieces by scissors. These pieces were further washed twice with a nutrient solution. The nutrient solution comprises 132.4 mM of NaCl, 5.4 mM of KCl, 5 mM of Na2 HPO4. 12H2 O, 1 mM of NaH2 PO4.2H2 O, 1.2 mM of MgSO4, 1 mM of CaCl2, 25 mM of HEPES, 2 mg/ml of glucose, and 1 mg/ml of BSA.
Into 70 ml of the nutrient solution containing 1 mg/ml of collagenase, minced mucosal pieces were dispersed and intensely stirred in a conical flask with a stirrer at 37° C. for 40 to 60 minutes. During this period, 100% O2 was sprayed on the nutrient solution surface and the pH was appropriately measured such that it was immediately adjusted to pH 7.4, when the value was therebelow, with a base. The nutrient solution was added to the reaction solution so as to attain the total amount of about 200 ml. After being filtered through a mesh, the suspension was divisionally introduced into 50 ml centrifuge tubes and left for 15 minutes such that gastric fundic gland was deposited. The supernatant was repeatedly removed by an aspirator, dispersed in the nutrient solution, and then left such that the gastric fundic gland was washed three times. At this time, without using a pipette, the suspension was alternately introduced into two centrifuge tubes so as to effect dispersion. The number of cells was counted under microscope and adjusted to 1.6×10^6 cells/ml.
Then, [^14 C]-aminopyrine uptake test was performed. After an Eppendorf tube was weighed, 10 μl (final concentration: 10^-5 M) of histamine dissolved in the above-mentioned nutrient solution, 10 μl (final concentration: […]) of the test compound dissolved in DMSO, and 10 μl (final concentration: 0.05 μCi/ml) of [^14 C]-aminopyrine diluted with the nutrient solution were introduced therein and then 970 μl of the isolated gastric fundic gland suspension prepared above was added thereto. Subsequently, this mixture was shaken at 37° C. for 40 minutes at 125 cycles/minute. After being centrifuged for 30 seconds, 200 μl of its supernatant was collected into a mini-vial, while the rest was removed by an aspirator. The gland pellet was completely dried as the tube with its lid being opened was kept for one night in a drying oven at 80° C. and then the lid was closed and the weight was determined at room temperature. Then 100 μl of 1N KOH was added thereto and the tube with its lid being closed was treated at 60° C. for 1 to 2 hours so as to dissolve the pellet. Then, the contents thereof were transferred to a mini-vial. Into the mini-vial containing the supernatant or gland pellet, 4 ml of Atomlite™ was added and then the radioactivity was measured by a liquid scintillation counter. Here, after the radioactivity of the gland pellet was corrected by using a sample in which 20 mM of NaSCN was added so as to cancel the hydrogen ion concentration gradient, the integration ratio of aminopyrine specifically trapped by the gland pellet was calculated. This experiment was performed in duplicate.
Here, its principle will be briefly explained. […]

| SMILES | inhibition at 10 µM |
| --- | --- |
| CC(C)=CCC/C(C)=C/CNc1ccc(C(=O)NCCN(C(C)C)C(C)C)cc1 [Example 26] | 100% |
| CC(C)=CCC/C(C)=C/COc1ccc(C(=O)NCCN(C(C)C)C(C)C)cc1CC(C)C [Example 34] | 100% |
| CCCCCCCCc1ccc(C(=O)NCCN(C(C)C)C(C)C)cc1 [Example 63] | 101% |
| CCCCN(C)CCNC(=O)c1ccc(OC/C=C(\C)CCC=C(C)C)cc1 [Example 11] | 100% |
| CC(C)N(CCNC(=O)c1ccc(C(C)(C)C)cc1)C(C)C [Example 61] | 97.3% |
| CCN(CC)CCNC(=O)c1ccc(OC/C=C(\C)CC/C=C(\C)CCC=C(C)C)cc1 [Example 6] | 97.9% |
| CC(C)COc1ccc(C(=O)NCCN(C(C)C)C(C)C)cc1 [Example 60] | 97.3% |
| CCN(CC)CCNC(=O)c1cccnc1OC/C=C(\C)CCC=C(C)C [Example 52] | 101% |
| CC(C)=CCC/C(C)=C/COc1ccc(C(=O)NCCN(C)C(C)(C)C)cc1 [Example 12] | 99.9% |
| CC(C)N(CCNC(=O)c1ccc(N(C)C)cc1)C(C)C [Example 70] | 101% |

System: stress ulcer formation in rats
Test: WIS: Restraint and Water Immersion Stress-Induced Ulcer Inhibition Test
Assay type: in vivo, rat (male Crj:SD or Slc:SD)
Conditions: 100 mg/kg oral, 10 minutes before 7 h restraint and water immersion (21° C.)
Experimental: WIS: Restraint and Water Immersion Stress-Induced Ulcer Inhibition Test
The degree of inhibition of the stress ulcer formation is tested.
Male Crj:SD or Slc:SD rats (6 to 7-week-old) were fasted overnight, but allowed free access to water. Each group has 5 to 8 of these rats. The sample compound was dissolved or suspended in an aqueous solution of 0.3% sodium carboxymethylcellulose or 0.05% Tween 80 and then was orally administered (100 mg/10 ml/kg). To a control group, the vehicle was administered. 10 minutes later, the rats were placed in a stress cage and immersed to the level of xipfoid process in a water bath (21° C.) for 7 hours. At the end of the stress, the rats were sacrificed by inhalation of ether or carbon dioxide. Then, the stomach of each was removed, inflated by injecting 10 ml of 5% formalin neutral buffer solution, and immersed in 1% formalin neutral buffer solution for 30 minutes or more to be fixed. The stomach was incised along the greater curvature and then the length of each erosion in the glandular portion was determined under dissecting microscope. The sum of the length of erosions per stomach was defined as ulcer index (UI).
The effect obtained when 100 mg/kg of the sample compound had been administered was expressed as ulcer formation inhibitory rate (%) as follows:
ulcer formation inhibitory rate (%)=(1-(UI in sample group/UI in control

| SMILES | WIS: ulcer formation inhibitory rate |
| --- | --- |
| CC(C)=CCC/C(C)=C/CNc1ccc(C(=O)NCCN(C(C)C)C(C)C)cc1 [Example 26] | 49% |
| CCN(CC)CCNC(=O)c1ccc(OC/C=C(\C)CCC=C(C)C)c(OC/C=C(\C)CCC=C(C)C)c1 [Example 18] | 37% |
| CC(C)=CCC/C(C)=C/COc1ccc(C(=O)NCCN(C)C)cn1 [Example 49] | 38% |
| CC(C)=CCC/C(C)=C/COc1ccc(C(=O)NCCN(C(C)C)C(C)C)cc1CC(C)C [Example 34] | 48% |
| CCCCCCCCc1ccc(C(=O)NCCN(C(C)C)C(C)C)cc1 [Example 63] | 49% |
| CC(C)=CCC/C(C)=C/COc1ccc(C(=O)NCCN(C)CC(C)C)cc1 [Example 10] | 65% |
| CCCCN(C)CCNC(=O)c1ccc(OC/C=C(\C)CCC=C(C)C)cc1 [Example 11] | 45% |
| CC(C)N(CCNC(=O)c1cc(C(C)(C)C)cc(C(C)(C)C)c1)C(C)C [Example 65] | 86% |
| CC(C)=CCOc1cccnc1C(=O)NCCN(C)C [Example 53] | 67% |
| CC(C)N(CCNC(=O)c1ccc(C(C)(C)C)cc1)C(C)C [Example 61] | 94% |
| CCN(CC)CCNC(=O)c1ncccc1OCC=C(C)C [Example 54] | 78% |
| CCN(CC)CCNC(=O)c1ccc(OC/C=C(\C)CCC=C(C)C)cc1 [Example 4] | 83% |
| CC(C)=CCC/C(C)=C/COc1ccc(C(=O)NCCN(CC(C)C)CC(C)C)cc1 [Example 9] | 40% |
| CCN(CC)CCNC(=O)c1cc(OC)c(OCC=C(C)C)c(OC)c1 [Example 36] | 88% |
| COc1cc(C(=O)NCCN(C)C)cc(OC)c1OC/C=C(\C)CCC=C(C)C [Example 43] | 88% |
| CC(C)=CCOc1cccnc1C(=O)NCCN(C(C)C)C(C)C [Example 55] | 97% |

| SMILES | WIS: ulcer formation inhibitory rate |
| --- | --- |
| CCN(CC)CCNC(=O)c1cccc(OC/C=C(\C)CCC=C(C)C)c1 [Example 1] | 72% |
| CC(C)N(CCNC(=O)c1ccc2c(c1)OCO2)C(C)C [Example 58] | 96% |
| CCN(CC)CCNC(=O)c1ccc(OC/C=C(\C)CC/C=C(\C)CCC=C(C)C)cc1 [Example 6] | 52% |
| CC(C)COc1ccc(C(=O)NCCN(C(C)C)C(C)C)cc1 [Example 60] | 98% |
| CCN(CC)CCNC(=O)c1cccnc1OC/C=C(\C)CCC=C(C)C [Example 52] | 57% |
| CC(C)=CCC/C(C)=C/COc1ccc(C(=O)NCCN(C)C(C)(C)C)cc1 [Example 12] | 34% |
| CC(C)=CCOc1ncccc1C(=O)NCCN(C)C [Example 45] | 41% |
| CC(C)N(CCNC(=O)c1ccc(N(C)C)cc1)C(C)C [Example 70] | 66% |
| CC(C)=CCOc1ccc(C(=O)NCCN(C)C)cn1 [Example 44] | 30% |
| CCN(CC)CCNC(=O)c1cc(OCC=C(C)C)c(OCC=C(C)C)c(OCC=C(C)C)c1 [Example 23] | 81% |
| CCN(CC)CCNC(=O)c1cc(OC)c(OC)c(OCC=C(C)C)c1 [Example 40] | 79% |
| CCN(CC)CCNC(=O)c1cc(OC/C=C(\C)CCC=C(C)C)cc(OC/C=C(\C)CCC=C(C)C)c1 [Example 19] | 69% |
| CC(C)=CCOc1cc(C(=O)NCCN(C)C)cc(OCC=C(C)C)c1OCC=C(C)C [Example 24] | 70% |
| CC(C)N(CCNC(=O)c1ccc(C(=O)NC(C)(C)C)cc1)C(C)C [Example 67] | 77% |
| CCN(CC)CCNC(=O)c1cccnc1OCC=C(C)C [Example 47] | 80% |

System: not listed separately
Test: MTT: Cell Damaging and Protecting Effect Test
Assay type: cell-based, rabbit (male Japanese White)
Conditions: rabbit, gastric corpus mucosa cells, final concentration 10^-4 M, smaller value is better, read-out: MTT: cell damaging rate
Text: MTT: Cell Damaging and Protecting Effect Test
It is confirmed that there is no toxicity in cell level. Those having a toxicity in cell level are inappropriate as an anti-ulcer drug.
A male Japanese White rabbit (2.5 to 3 kg) was anesthetized to death by Nembutal™ and, immediately thereafter, its stomach was removed. The greater curvature of the stomach was incised so as to remove the stomach contents therefrom. After the mucosal surface was washed with HBSS (Hanks' Balanced Salt Solution), the stomach in ice-cooled HBSS was transferred to a laboratory. Then, after the pyloric antrum was removed, the gastric corpus mucosa was separated by a spatula and then minced into 2 to 3 mm^3 pieces in BME (Basal Medium Eagle). Thereafter, these pieces were shaken at 120 to 130 cycles/minute for 15 minutes at 37° C. in BME 60 ml containing 280 U/ml of dispase and 30 to 50 U/ml of collagenase. Here, the concentration of collagenase was appropriately changed for each lot in view of the state of cells. The pieces were washed twice with EBSS (Earle's Balanced Salt Solution) containing 1 mM of EDTA and then shaken in MEM (Minimum Essential Medium) containing 1 mM of EDTA at 37° C. for 5 minutes. Subsequently, they were shaken in the dispase and collagenase having the same concentrations as those mentioned above for 15 minutes so as to remove the supernatant and then further shaken at 37° C. for 50 to 60 minutes at 120 to 130 cycles/minute. Then, after being washed twice with HBSS, Ham F12 containing 2% of Ultrocer G™ was used to attain the concentration of 1×10^6 cells/ml. Thus formed suspension was dispensed in each well of a 96-well plate by 200 μl. The plate was incubated in the atmosphere composed of 5% CO2 and 95% air at 37° C. for three days so as to attain a confluent state and then subjected to MTT assay.
The sample compound was dissolved in DMSO so as to attain a concentration of 10^-2 M and then diluted with HBSS containing 2% of Ultrocer G™ so as to attain a final concentration of 10^-4 M. To each group, which 8 wells were used for, 10 μl of MTT reagent was added immediately after 100 μl of the medium in each well was exchanged for same volume of the resulting solution of the sample compound. After being incubated in an atmosphere composed of 5% CO2 and 95% air at 37° C. for 4 hours, thus formed solution was centrifuged and then its supernatant was discarded. Subsequently, 100 μl of 100% ethanol was added to the residue so as to dissolve MTT formazan. Then, the absorbance (OD: 570 to 630) was measured by a microplate reader. This method utilizes a phenomenon in which MTT is changed to MTT formazan only by mitochondria of living cells so as to change color.
The cell damaging or cell protecting effect of the sample compound at the final concentration of 10^-4 M was expressed as cell damaging rate (%) as follows:
cell damaging rate (%)=(1-(absorbance in sample group/absorbance in control
Accordingly, the smaller value is better in the cell damaging rate.

| SMILES | cytotoxicity at 4 h, 100 µM |
| --- | --- |
| CC(C)N(CCNC(=O)c1cc(C(C)(C)C)cc(C(C)(C)C)c1)C(C)C [Example 65] | 5% |
| CC(C)=CCOc1cccnc1C(=O)NCCN(C)C [Example 53] | 1% |
| CCN(CC)CCNC(=O)c1ncccc1OCC=C(C)C [Example 54] | -10% |
| CC(C)=CCC/C(C)=C/COc1ccc(C(=O)NCCN(CC(C)C)CC(C)C)cc1 [Example 9] | 15% |
| COc1cc(C(=O)NCCN(C)C)cc(OC)c1OC/C=C(\C)CCC=C(C)C [Example 43] | 1% |
| CC(C)=CCOc1cccnc1C(=O)NCCN(C(C)C)C(C)C [Example 55] | 20% |
| CC(C)N(CCNC(=O)c1ccc2c(c1)OCO2)C(C)C [Example 58] | 29% |
| CCN(CC)CCNC(=O)c1cc(OC)c(OC)c(OCC=C(C)C)c1 [Example 40] | -2% |
| CC(C)N(CCNC(=O)c1ccc(C(=O)NC(C)(C)C)cc1)C(C)C [Example 67] | -35% |
